Data published in patent publication US20260317356A1, “SMALL MOLECULE MODULATORS OF OGG1” (AZKARRA THERAPEUTICS, INC., priority 2023, published 2026).

What was measured:
[1] = target: T1, hOGG1 (Homo sapiens, UniProt O15527); experiment: Surface Plasma Resonance with hOGG1 to measure compound affinity (OGG1 SPR Kd); type: binding; parameters: Protein His-hOGG1 (12-323) was prepared; settings: Biacore T-200, immobilized his-tagged OGG1; pH 7.4; 2% DMSO; single-cycle kinetics
Method: Surface Plasma Resonance with hOGG1 to Measure Compound Affinity (OGG1 SPR Kd); All the SPR studies were performed on a Biacore T-200 instrument (Cytiva life sciences) using series S NTA sensor chip (cat #BR-1005-32, Cytiva life sciences). Recombinant his-tagged OGG1 (mol. wt. 36003; ChemPartner, Shanghai, China) was immobilized on NTA sensor chip via Ni^2+/NTA chelation using NTA reagent kit (Cytiva life sciences; cat #289950) as per manufacturer's recommended protocol. The running buffer during immobilization contained HEPES (20 mM, pH 7.4), 150 mM NaCl, 0.5 mM TCEP (tris(2-carboxyethyl)phosphine), and 0.005% Tween-20. NTA sensor chip (experimental cell) was first conditioned by injecting regeneration solution (350 mM EDTA, flow rate 30 μL/min, 2 injections 60 each). Additional wash with 50 mM NaOH was used whenever the chip was regenerated (flow rate 30 μL/min, 1 injection of 60 s). The sensor chip was then activated with 0.5 mM NiCl2 (flow rate 10 μL/min, 2 injection of 60 s, leading to a baseline increase of ~40 RU), and the excess Ni^2+ was removed using immobilization buffer containing 3 mM EDTA (flow rate 10 μL/min, 1 injection of 60 s). Finally, OGG1 (diluted to 6.2 μg/mL in running buffer) was injected on the activated sensor chip at a flow rate of 10 μL/min until immobilization level reached ~6000 RU. Any loosely bound protein was removed by passing the immobilization buffer overnight at 20 μL/min. At this point, the drift in baseline was ~0.01 RU/s and the final immobilization level was ~2500 RU. Reference cell was left untreated. SPR binding experiments were performed using binding buffer (20 mM HEPES (pH 7.4), 150 mM NaCl, 0.5 mM TCEP, 0.005% Tween-20, and 2% DMSO) at a flow rate of 30 μL/min. Single-cycle kinetics approach was used for binding analysis which consisted of sequential injections of increasing concentrations of test compound (a 3-fold serial dilution with 5 concentrations; highest 750 or 1500 nM; with final DMSO concentration at 2%) over the immobilized protein without regeneration step between each sample injection. Each injection was 45 seconds long (contact time), followed by a final dissociation of 600 sec. The Biacore T-200 Evaluation software 3.1 (GE Healthcare) was used to determine kinetic parameters from SPR data. All the reported sensograms were reference subtracted and corrected for refractive index contributions from solvent using 8-point solvent correction (1.4 to 2.8% DMSO in binding buffer). Data were fit to both steady state and 1:1 kinetic model to obtain Kon, Koff and binding affinity (Kd).

[2] = target: T1, hOGG1; experiment: Biochemical fluorescence assay to measure enzymatic activity of hOGG1 (OGG1/APEX IC50); parameters: Protein His-hOGG1 (12-323) was prepared; His (N); host or cells: E. coli; settings: 1 nM OGG1+2 nM APEX+6 nM dsDNA (8-oxo-dG substrate); pH 7.5; RT 40 min; read-out: OGG1/APEX IC50
In short: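 Coupled glycosylase/AP-endonuclease read-out: 8-oxo-dG-containing dsDNA (6 nM) cleaved by 1 nM His-hOGG1 (12-323) plus 2 nM APEX1 over 40 min at room temperature, after 20 min enzyme–compound preincubation; buffer 20 mM Tris pH 7.5, 100 mM KCl, 0.1% BSA, 0.01% Tween. IC50 comes from sigmoidal 3-parameter fitting of % inhibition derived from TAMRA signal.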

T1 sequence (O15527 12-323): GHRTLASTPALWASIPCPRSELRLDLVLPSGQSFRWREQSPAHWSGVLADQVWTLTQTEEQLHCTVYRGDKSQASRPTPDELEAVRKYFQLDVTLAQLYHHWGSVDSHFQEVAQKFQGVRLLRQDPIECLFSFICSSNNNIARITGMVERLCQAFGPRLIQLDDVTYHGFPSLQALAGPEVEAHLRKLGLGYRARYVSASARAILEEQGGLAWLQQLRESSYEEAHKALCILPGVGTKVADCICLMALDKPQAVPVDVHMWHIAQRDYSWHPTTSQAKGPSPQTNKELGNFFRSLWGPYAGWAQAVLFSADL

Kd [1]	IC50 [2]	Structure (SMILES)
≤ 10 nM	< 100 nM	COc1ccc(NC(=O)[C@H]2CC[C@@H](N3Cc4c(C)cc(NCCN(C)C)cc4C3=O)CC2)cc1C [Example 256, (1s,4s)-4-(6-(2-(Dimethylamino)ethylamino)-4-methyl-1-oxoisoindolin-2-yl)-N-(4-methoxy-3-methylphenyl)cyclohexanecarboxamide]
10 to 100 nM	< 100 nM	COc1cc(NC(=O)[C@H]2CC[C@@H](N3Cc4c(C)cc(-c5nnco5)cc4NC3=O)CC2)ccc1C [Example 92, (1s,4s)-N-(3-methoxy-4-methylphenyl)-4-(5-methyl-7-(1,3,4-oxadiazol-2-yl)-2-oxo-1,2-dihydroquinazolin-3(4H)-yl)cyclohexanecarboxamide]
10 to 100 nM	< 100 nM	COc1cc(NC(=O)[C@H]2CC[C@@H](N3Cc4c(C)ccc(CN)c4NC3=O)CC2)ccc1C [Example 58, (1s,4s)-4-(8-(aminomethyl)-5-methyl-2-oxo-1,2-dihydroquinazolin-3(4H)-yl)-N-(3-methoxy-4-methylphenyl)cyclohexanecarboxamide]
10 to 100 nM	< 100 nM	COc1ccc(NC(=O)[C@H]2CC[C@@H](N3Cc4c(C)cc(NCCN(C)C)cc4NC3=O)CC2)cc1C [Example 97, (1s,4s)-4-(7-(2-(dimethylamino)ethylamino)-5-methyl-2-oxo-1,2-dihydroquinazolin-3(4H)-yl)-N-(4-methoxy-3-methylphenyl)cyclohexanecarboxamide]
10 to 100 nM	< 100 nM	COc1ccc(NC(=O)[C@]2(C)CC[C@H](N3Cc4c(C)cccc4NC3=O)CC2)cc1Cl (single isomer, unassigned) [Example 103, (1s,4s)-N-(3-chloro-4-methoxyphenyl)-1-methyl-4-(5-methyl-2-oxo-1,2-dihydroquinazolin-3(4H)-yl)cyclohexanecarboxamide]
10 to 100 nM	< 100 nM	COc1cc(NC(=O)[C@H]2CC[C@@H](N3Cc4c(C)ccc(C#N)c4C3=O)CC2)ccc1C [Example 143, (1s,4s)-4-(7-Cyano-4-methyl-1-oxoisoindolin-2-yl)-N-(3-methoxy-4-methylphenyl)cyclohexanecarboxamide]
10 to 100 nM	< 100 nM	COc1cc(NC(=O)[C@H]2CC[C@@H](N3Cc4c(C)cc(N(C)C)cc4C3=O)CC2)ccc1C [Example 135, (1s,4s)-4-(6-(Dimethylamino)-4-methyl-1-oxoisoindolin-2-yl)-N-(3-methoxy-4-methylphenyl)cyclohexane-1-carboxamide]
10 to 100 nM	< 100 nM	COc1ccc(NC(=O)[C@H]2CC[C@@H](N3Cc4c(C)cc(NCCN(C)C)cc4NC3=O)CC2)cc1C#N [Example 99, (1s,4s)-N-(3-cyano-4-methoxyphenyl)-4-(7-(2-(dimethylamino)ethylamino)-5-methyl-2-oxo-1,2-dihydroquinazolin-3(4H)-yl)cyclohexanecarboxamide]

Further lines, the compound ahead of its results:

Structure (SMILES)	Kd [1]	IC50 [2]
COc1ccc(NC(=O)[C@H]2CC[C@@H](N3Cc4c(C)ccc(OC)c4NC3=O)CC2)cc1C#N [Example 2, (1s,4s)-N-(3-Cyano-4-methoxyphenyl)-4-(8-methoxy-5-methyl-2-oxo-1,2-dihydroquinazolin-3(4H)-yl)cyclohexanecarboxamide]	10 to 100 nM	100 to 1000 nM
COc1ccc(NC(=O)[C@]2(C)CC[C@H](N3Cc4c(C)ccc(OC)c4NC3=O)CC2)cc1Cl (single isomer, unassigned) [Example 7, (1s,4s)-N-(3-chloro-4-methoxyphenyl)-4-(8-methoxy-5-methyl-2-oxo-1,2-dihydroquinazolin-3(4H)-yl)-1-methylcyclohexanecarboxamide]	10 to 100 nM	< 100 nM
COc1ccc(NC(=O)[C@H]2CC[C@@H](N3Cc4c(C)ccc(OC)c4NC3=O)CC2)cc1Cl [Example 3, (1s,4s)-N-(3-Chloro-4-methoxyphenyl)-4-(8-methoxy-5-methyl-2-oxo-1,2-dihydroquinazolin-3(4H)-yl)cyclohexanecarboxamide]	10 to 100 nM	100 to 1000 nM
COc1ccc(NC(=O)[C@]2(C)CC[C@H](N3Cc4c(C)ccc(OC)c4NC3=O)CC2)cc1C#N (single isomer, unassigned) [Example 9, (1s,4s)-N-(3-cyano-4-methoxyphenyl)-4-(8-methoxy-5-methyl-2-oxo-1,2-dihydroquinazolin-3(4H)-yl)-1-methylcyclohexanecarboxamide]	≤ 10 nM	< 100 nM
COc1ccc(NC(=O)[C@H]2CC[C@@H](N3Cc4c(C)ccc(OC)c4NC3=O)CC2)cc1C [Example 4, (1s,4s)-N-(3-Methyl-4-methoxyphenyl)-4-(8-methoxy-5-methyl-2-oxo-1,2-dihydroquinazolin-3(4H)-yl)cyclohexanecarboxamide]	10 to 100 nM	100 to 1000 nM
COc1ccc(NC(=O)[C@H]2CC[C@@H](N3Cc4c(C)ccnc4NC3=O)CC2)cc1C [Example 16, (1s,4s)-N-(4-Methoxy-3-methylphenyl)-4-(5-methyl-2-oxo-1,2-dihydropyrido[2,3-d]pyrimidin-3(4H)-yl)cyclohexanecarboxamide]	≤ 10 nM	< 100 nM
COc1cc(NC(=O)[C@]2(C)CC[C@H](N3Cc4c(C)ccc(OC)c4NC3=O)CC2)ccc1C [Example 13, (1s,4s)-N-(3-Methoxy-4-methylphenyl)-4-(8-methoxy-5-methyl-2-oxo-1,2-dihydroquinazolin-3(4H)-yl)-1-methylcyclohexanecarboxamide]	10 to 100 nM	100 to 1000 nM
